Laboratory results: US20250221410A1, “SUBSTITUTED 2-C-AZINES AND SALTS THEREOF, AND USE THEREOF AS HERBICIDAL ACTIVE SUBSTANCES” (BAYER AKTIENGESELLSCHAFT, priority 2022, published 2025)

Tests used:
Type in all cases: in vivo
[1] = test system: ABUTH: Abutilon theophrasti; assay: Pre-emergence herbicide efficacy at 1280 g/ha, ABUTH; details: visual scoring after about 3 weeks vs untreated controls
Procedure, shortened: (§1)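 Weed seeds were sown in sandy loam, covered with soil, and the soil surface was treated with the compound, formulated as wettable powder or emulsion concentrate, in water containing 0.5% additive at 600 L/ha. Plants then grew in the greenhouse for roughly 3 weeks before percentage efficacy was scored by eye against untreated controls.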

[2] = test system: ALOMY: Alopecurus myosuroides; assay: Post-emergence herbicidal efficacy at 1280 g/ha, ALOMY; details: rated visually after about 3 weeks vs untreated controls, 100% = plants have died, 0% = like control plants
Procedure: (§2) Seeds of mono- and dicotyledonous weed plants were placed in plastic pots in sandy loam soil (doubly sown with in each case one species of mono- or dicotyledonous weed plants per pot), covered with soil and cultivated in a greenhouse under controlled growth conditions. 2 to 3 weeks after sowing, the test plants were treated at the one-leaf stage. The compounds of the invention, formulated in the form of wettable powders (WP) or as emulsion concentrates (EC), were applied to the green parts of the plants as aqueous suspension or emulsion with addition of 0.5% additive at a water application rate equivalent to 600 litres per hectare. After the test plants had been kept in the greenhouse under optimum growth conditions for about 3 weeks, the activity of the preparations was rated visually in comparison to untreated controls. For example, 100% activity=the plants have died, 0% activity=like control plants. Tables A1 to A12 below show the effects of selected compounds of the general formula (I) according to Table 1 on various harmful plants and at an application rate corresponding to 1280 g/ha, which were obtained by the trial procedure specified above.

[3] = test system: MATIN: Matricaria inodora; assay: Pre-emergence herbicide efficacy at 1280 g/ha, MATIN; details: visual scoring after about 3 weeks vs untreated controls
Procedure, shortened: as §1

VERPE: Veronica persica [4] = assay: Post-emergence herbicidal efficacy at 80 g/ha, VERPE; details: visual rating about 3 weeks after treatment vs untreated controls
Procedure, shortened: (§3)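 Post-emergence spray, one-leaf stage (2–3 wk after sowing), sandy loam, greenhouse; WP/EC in water + 0.5% additive, 600 l/ha. Visual % activity vs untreated controls at ~3 wk; 100% = plants dead, 0% = like control.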

[5] = test system: AMARE: Amaranthus retroflexus; assay: Post-emergence herbicidal efficacy at 80 g/ha, AMARE; details: visual rating about 3 weeks after treatment vs untreated controls
Procedure, shortened: as §3

VERPE: Veronica persica [6] = assay: Pre-emergence herbicide efficacy at 1280 g/ha, VERPE; details: visual scoring vs untreated controls
Procedure, shortened: as §1

[7] = test system: ALOMY: Alopecurus myosuroides; assay: Pre-emergence herbicide efficacy at 1280 g/ha, ALOMY; details: visual scoring after about 3 weeks vs untreated controls
From the text: (§4) Seeds of mono- and dicotyledonous weed plants were placed in plastic pots in sandy loam soil (doubly sown with one species each of mono- or dicotyledonous weed plants per pot) and covered with soil. The compounds of the invention, formulated in the form of wettable powders (WP) or as emulsion concentrates (EC), were then applied to the surface of the covering soil as aqueous suspension or emulsion with addition of 0.5% additive at a water application rate of 600 litres per hectare (converted). After the treatment, the pots were placed in a greenhouse and kept under good growth conditions for the test plants. After about 3 weeks, the efficacy of the preparations was scored visually in comparison with untreated controls as percentages. For example, 100% activity=the plants have died, 0% activity=like control plants. Tables C1 to C12 below show the effects of selected compounds of the general formula (I) according to Table 1 on various harmful plants and at an application rate corresponding to 1280 g/ha, which were obtained by the trial procedure specified above.

LOLRI: Lolium rigidum [8] = assay: Pre-emergence herbicide efficacy at 1280 g/ha, LOLRI; details: visual scoring after about 3 weeks vs untreated controls
From the text: as §4

[9] = test system: DIGSA: Digitaria sanguinalis; assay: Pre-emergence herbicide efficacy at 1280 g/ha, DIGSA; details: visual scoring after about 3 weeks vs untreated controls
Procedure, shortened: as §1

VERPE: Veronica persica [10] = assay: Post-emergence herbicidal efficacy at 1280 g/ha, VERPE; details: visual rating about 3 weeks after treatment vs untreated controls
Procedure, shortened: (§5)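 Greenhouse post-emergence spray: one-leaf stage, 2–3 wk after sowing; WP/EC as aqueous suspension/emulsion + 0.5% additive, 600 L/ha water. Visual % activity vs untreated at ~3 wk; 100% = dead, 0% = as control.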

KCHSC: Kochia scoparia [11] = assay: Post-emergence herbicidal efficacy at 1280 g/ha, KCHSC; details: visual rating about 3 weeks after treatment vs untreated controls
Procedure, shortened: as §5

KCHSC: Kochia scoparia [12] = assay: Post-emergence herbicidal efficacy at 80 g/ha, KCHSC; details: visual rating about 3 weeks after treatment vs untreated controls
Procedure: (§6) Seeds of monocotyledonous and dicotyledonous weeds and crop plants were placed in sandy loam in plastic or organic planting pots, covered with soil and cultivated in a greenhouse under controlled growth conditions. 2 to 3 weeks after sowing, the test plants were treated at the one-leaf stage. The compounds of the invention, formulated in the form of wettable powders (WP) or as emulsion concentrates (EC), were then sprayed onto the green parts of the plants as aqueous suspension or emulsion with addition of 0.5% additive at a water application rate of 600 l/ha (converted). After the test plants had been kept in the greenhouse under optimum growth conditions for about 3 weeks, the activity of the preparations was rated visually in comparison to untreated controls. For example, 100% activity=the plants have died, 0% activity=like control plants. Tables B1 to B10 below show the effects of selected compounds of the general formula (I) according to Table 1 on various harmful plants and an application rate corresponding to 80 g/ha, which were obtained by the experimental procedure mentioned above.

SETVI: Setaria viridis [13] = assay: Pre-emergence herbicide efficacy at 1280 g/ha, SETVI; details: visual scoring vs untreated controls
Procedure, shortened: as §1

[14] = test system: AMARE: Amaranthus retroflexus; assay: Post-emergence herbicidal efficacy at 1280 g/ha, AMARE; details: rated visually after about 3 weeks vs untreated controls, 100% = plants have died, 0% = like control plants
Procedure, shortened: as §5

STEME: Stellaria media [15] = assay: Post-emergence herbicidal efficacy at 1280 g/ha, STEME; details: visual rating about 3 weeks after treatment vs untreated controls
Procedure, shortened: as §5

[16] = test system: ECHCG: Echinochloa crus-galli; assay: Pre-emergence herbicide efficacy at 1280 g/ha, ECHCG; details: visual scoring after about 3 weeks vs untreated controls
Procedure, shortened: as §1

KCHSC: Kochia scoparia [17] = assay: Pre-emergence herbicide efficacy at 1280 g/ha, KCHSC; details: visual scoring after about 3 weeks vs untreated controls
Procedure, shortened: as §1

POAAN: Poa annua [18] = assay: Post-emergence herbicidal efficacy at 1280 g/ha, POAAN; details: visual rating about 3 weeks after treatment vs untreated controls
Procedure, shortened: as §5

[19] = test system: ABUTH: Abutilon theophrasti; assay: Post-emergence herbicidal efficacy at 1280 g/ha, ABUTH; details: rated visually after about 3 weeks vs untreated controls, 100% = plants have died, 0% = like control plants
Procedure, shortened: as §5

POAAN: Poa annua [20] = assay: Pre-emergence herbicide efficacy at 1280 g/ha, POAAN; details: visual scoring after about 3 weeks vs untreated controls
Procedure, shortened: as §1

STEME: Stellaria media [21] = assay: Pre-emergence herbicide efficacy at 1280 g/ha, STEME; details: visual scoring vs untreated controls
Procedure, shortened: as §1

[22] = test system: DIGSA: Digitaria sanguinalis; assay: Post-emergence herbicidal efficacy at 1280 g/ha, DIGSA; details: rated visually after about 3 weeks vs untreated controls, 100% = plants have died, 0% = like control plants
Procedure, shortened: as §5

VIOTR: Viola tricolor [23] = assay: Pre-emergence herbicide efficacy at 80 g/ha, VIOTR; details: scored visually after about 3 weeks
From the text: Seeds of monocotyledonous and dicotyledonous weed plants and crop plants were placed in plastic or organic planting pots and covered with soil. The compounds of the invention, formulated in the form of wettable powders (WP) or as emulsion concentrates (EC), were then applied to the surface of the covering soil as aqueous suspension or emulsion with addition of 0.5% additive at a water application rate equivalent to 600 l/ha. After the treatment, the pots were placed in a greenhouse and kept under good growth conditions for the test plants. After about 3 weeks, the efficacy of the preparations was scored visually in comparison with untreated controls as percentages. For example, 100% activity=the plants have died, 0% activity=like control plants. Tables D1 to D12 below show the effects of selected compounds of the general formula (I) according to Table 1 on various harmful plants and an application rate corresponding to 80 g/ha, which were obtained by the experimental procedure mentioned above.

SETVI: Setaria viridis [24] = assay: Post-emergence herbicidal efficacy at 1280 g/ha, SETVI; details: visual rating about 3 weeks after treatment vs untreated controls
Procedure, shortened: as §5

LOLRI: Lolium rigidum [25] = assay: Post-emergence herbicidal efficacy at 1280 g/ha, LOLRI; details: visual rating about 3 weeks after treatment vs untreated controls
Procedure: as §2

VIOTR: Viola tricolor [26] = assay: Post-emergence herbicidal efficacy at 80 g/ha, VIOTR; details: visual rating about 3 weeks after treatment vs untreated controls
Procedure: as §6

[27] = test system: ECHCG: Echinochloa crus-galli; assay: Post-emergence herbicidal efficacy at 1280 g/ha, ECHCG; details: rated visually after about 3 weeks vs untreated controls, 100% = plants have died, 0% = like control plants
Procedure, shortened: as §5

[28] = test system: AMARE: Amaranthus retroflexus; assay: Pre-emergence herbicide efficacy at 1280 g/ha, AMARE; details: visual scoring after about 3 weeks vs untreated controls
Procedure, shortened: as §1

Fc1ccc(Oc2c(Cc3ncc(Cl)cn3)cccc2C(F)(F)F)cc1 [Example 1-40]
Pre-emergence efficacy against ABUTH [1]: 100%
Post-emergence efficacy at 1280 g/ha against ALOMY in % [2]: 100%
Pre-emergence efficacy against MATIN [3]: 90%
Post-emergence efficacy against VERPE (VERPE: Veronica persica [4]): 90%
Post-emergence efficacy against AMARE [5]: 90%
Pre-emergence efficacy against VERPE in % (VERPE: Veronica persica [6]): 100%
Pre-emergence efficacy against ALOMY [7]: 100%
Pre-emergence efficacy against LOLRI (LOLRI: Lolium rigidum [8]): 100%
Pre-emergence efficacy against DIGSA [9]: 100%
Post-emergence efficacy against VERPE (VERPE: Veronica persica [10]): 100%
Post-emergence efficacy against KCHSC (KCHSC: Kochia scoparia [11]): 100%
Post-emergence efficacy against KCHSC (KCHSC: Kochia scoparia [12]): 90%
Pre-emergence efficacy against SETVI in % (SETVI: Setaria viridis [13]): 100%
Post-emergence efficacy at 1280 g/ha against AMARE in % [14]: 100%
Post-emergence efficacy against STEME (STEME: Stellaria media [15]): 100%
Pre-emergence efficacy against ECHCG [16]: 100%
Pre-emergence efficacy against KCHSC (KCHSC: Kochia scoparia [17]): 90%
Post-emergence efficacy against POAAN (POAAN: Poa annua [18]): 90%
Post-emergence efficacy at 1280 g/ha against ABUTH in % [19]: 100%
Pre-emergence efficacy against POAAN (POAAN: Poa annua [20]): 100%
Pre-emergence efficacy against STEME in % (STEME: Stellaria media [21]): 100%
Post-emergence efficacy at 1280 g/ha against DIGSA in % [22]: 90%
Pre-emergence efficacy against VIOTR in % (VIOTR: Viola tricolor [23]): 100%
Post-emergence efficacy against SETVI (SETVI: Setaria viridis [24]): 90%
Post-emergence efficacy against LOLRI (LOLRI: Lolium rigidum [25]): 100%
Post-emergence efficacy against VIOTR (VIOTR: Viola tricolor [26]): 100%
Post-emergence efficacy at 1280 g/ha against ECHCG in % [27]: 100%
Pre-emergence efficacy against AMARE [28]: 100%
